Earlier results in patent US7996156B2, “Methods for predicting properties of molecules” (priority 2002, dated 2011).

Assays:
estrogen receptor = target: T1, estrogen receptor (Rattus norvegicus, UniProt P06211); conditions: background statement; cited from earlier work
T1 construct: in rat uterine cytosol, which was obtained from ovariectomized uteri of Sprague-Dawley rats; from tissue; host or cells: uterine cytosol of ovariectomized Sprague-Dawley rats
T1 sequence (P06211 1-600): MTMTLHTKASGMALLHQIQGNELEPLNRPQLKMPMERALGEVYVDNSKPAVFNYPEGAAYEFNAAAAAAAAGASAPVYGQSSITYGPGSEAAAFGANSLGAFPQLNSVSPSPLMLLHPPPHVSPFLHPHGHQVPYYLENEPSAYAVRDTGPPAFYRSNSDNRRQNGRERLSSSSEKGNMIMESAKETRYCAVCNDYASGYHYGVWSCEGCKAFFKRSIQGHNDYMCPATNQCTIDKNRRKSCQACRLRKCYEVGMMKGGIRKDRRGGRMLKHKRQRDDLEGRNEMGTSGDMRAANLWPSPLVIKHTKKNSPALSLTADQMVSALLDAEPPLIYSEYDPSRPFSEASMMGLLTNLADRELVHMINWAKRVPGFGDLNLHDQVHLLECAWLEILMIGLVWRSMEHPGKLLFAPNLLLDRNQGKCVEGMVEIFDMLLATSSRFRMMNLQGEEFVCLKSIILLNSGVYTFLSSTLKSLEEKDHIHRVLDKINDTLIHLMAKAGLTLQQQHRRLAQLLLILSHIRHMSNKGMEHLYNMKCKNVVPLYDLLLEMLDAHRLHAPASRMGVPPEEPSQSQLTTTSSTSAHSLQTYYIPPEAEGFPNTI

aromatase enzyme = target: T2, aromatase enzyme (Homo sapiens, UniProt P11511); conditions: 50 steroids of Table 8; cited from earlier work
T2 sequence (P11511 1-503): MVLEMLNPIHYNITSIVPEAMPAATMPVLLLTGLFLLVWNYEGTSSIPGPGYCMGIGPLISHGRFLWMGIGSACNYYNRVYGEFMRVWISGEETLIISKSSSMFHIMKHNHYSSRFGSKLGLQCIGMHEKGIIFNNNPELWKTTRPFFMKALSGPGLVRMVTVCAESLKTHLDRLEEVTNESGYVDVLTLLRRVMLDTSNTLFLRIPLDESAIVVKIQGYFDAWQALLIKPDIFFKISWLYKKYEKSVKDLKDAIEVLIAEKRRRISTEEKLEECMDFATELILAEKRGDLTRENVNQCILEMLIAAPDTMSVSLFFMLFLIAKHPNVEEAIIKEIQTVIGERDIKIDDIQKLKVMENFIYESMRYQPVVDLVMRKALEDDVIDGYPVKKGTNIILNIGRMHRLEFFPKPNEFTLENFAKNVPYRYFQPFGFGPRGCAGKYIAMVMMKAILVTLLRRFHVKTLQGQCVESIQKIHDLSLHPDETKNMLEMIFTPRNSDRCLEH

| Compound | binding to the estrogen receptor (in words) (estrogen receptor) | Binding (experimental binding data, aromatase enzyme) (aromatase enzyme) |
| --- | --- | --- |
| C/C(=C(/C)c1ccc(O)cc1)c1ccc(O)cc1 [dimethystilbesterol] | bind strongly | – |
| C/C=C1\CC2C(CC[C@]3(C)C(=O)CCC23)[C@@]2(C)CCC(=O)C=C12 (some centres unmarked) [compound 50] | – | 0.96 |
